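Where inhibition never reached the appropriate level, the endpoint shown equals the highest concentration tested. Otherwise, values were interpolated linearly from a five-concentration, 48-hour dose response in 96-well plates. At the TGI there is no net growth.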
What was measured:
Assay in all cases: growth of human tumour cells (NCI), 48 h
786-0 renal = system: 786-0 renal
A549 NSCLC = system: A549 NSCLC
ACHN renal = system: ACHN renal
CAKI-1 renal = system: CAKI-1 renal
CCRF-CEM leukemia = system: CCRF-CEM leukemia
COLO 205 colon = system: COLO 205 colon
DLD-1 colon = system: DLD-1 colon
DMS 114 small cell lung = system: DMS 114 small cell lung
DMS 273 small cell lung = system: DMS 273 small cell lung
HCC-2998 colon = system: HCC-2998 colon
HCT-116 colon = system: HCT-116 colon
HCT-15 colon = system: HCT-15 colon
HL-60(TB) leukemia = system: HL-60(TB) leukemia
HOP-62 NSCLC = system: HOP-62 NSCLC
HOP-92 NSCLC = system: HOP-92 NSCLC
HT29 colon = system: HT29 colon
IGROV1 ovarian = system: IGROV1 ovarian
K-562 leukemia = system: K-562 leukemia
KM12 colon = system: KM12 colon
KM20L2 colon = system: KM20L2 colon
LOX IMVI melanoma = system: LOX IMVI melanoma
LXFL 529 NSCLC = system: LXFL 529 NSCLC
M14 melanoma = system: M14 melanoma
M19-MEL melanoma = system: M19-MEL melanoma
MALME-3M melanoma = system: MALME-3M melanoma
MOLT-4 leukemia = system: MOLT-4 leukemia
NCI-H226 lung = system: NCI-H226 lung
NCI-H23 lung = system: NCI-H23 lung
NCI-H460 lung = system: NCI-H460 lung
NCI-H522 lung = system: NCI-H522 lung
OVCAR-3 ovarian = system: OVCAR-3 ovarian
OVCAR-4 ovarian = system: OVCAR-4 ovarian
OVCAR-5 ovarian = system: OVCAR-5 ovarian
OVCAR-8 ovarian = system: OVCAR-8 ovarian
RPMI-8226 leukemia = system: RPMI-8226 leukemia
RXF 393 renal = system: RXF 393 renal
SF-268 CNS = system: SF-268 CNS
SF-295 CNS = system: SF-295 CNS
SF-539 CNS = system: SF-539 CNS
SK-MEL-28 melanoma = system: SK-MEL-28 melanoma
SK-MEL-5 melanoma = system: SK-MEL-5 melanoma
SK-OV-3 ovarian = system: SK-OV-3 ovarian
SN12C renal = system: SN12C renal
SNB-19 CNS = system: SNB-19 CNS
SNB-75 CNS = system: SNB-75 CNS
SNB-78 CNS = system: SNB-78 CNS
SR leukemia = system: SR leukemia
SW-620 colon = system: SW-620 colon
TK-10 renal = system: TK-10 renal
U251 CNS = system: U251 CNS
UACC-257 melanoma = system: UACC-257 melanoma
UACC-62 melanoma = system: UACC-62 melanoma
UO-31 renal = system: UO-31 renal
XF 498 CNS = system: XF 498 CNS
EKVX NSCLC = system: EKVX NSCLC
HOP-18 NSCLC = system: HOP-18 NSCLC
SK-MEL-2 melanoma = system: SK-MEL-2 melanoma
A498 renal = system: A498 renal

Measured: TGI

CC1=CC(=O)C(=O)C2=C1OC1(C2)C(C)CCC2C3(C)CCC(O)C(C)(C)C3CCC21C (stereo not drawn)
37.4 µM: KM20L2 colon | OVCAR-4 ovarian
65.2 µM: CCRF-CEM leukemia
30.7 µM: NCI-H522 lung
29.9 µM: KM12 colon | U251 CNS
88.3 µM: RPMI-8226 leukemia
37.2 µM: M14 melanoma | OVCAR-5 ovarian
42.1 µM: HCT-15 colon
> 100 µM: A549 NSCLC | SF-539 CNS | SN12C renal | SNB-75 CNS | SR leukemia
73.8 µM: SK-OV-3 ovarian
32.2 µM: SNB-19 CNS
64.6 µM: SNB-78 CNS
34 µM: HCC-2998 colon | XF 498 CNS
31.9 µM: ACHN renal
32.6 µM: COLO 205 colon
34.2 µM: IGROV1 ovarian
35.1 µM: NCI-H460 lung
35.3 µM: MALME-3M melanoma | SF-295 CNS
35 µM: HOP-62 NSCLC
54.1 µM: K-562 leukemia
34.4 µM: M19-MEL melanoma | UO-31 renal
33.4 µM: SK-MEL-5 melanoma
46.1 µM: SW-620 colon
31.3 µM: NCI-H23 lung
63 µM: SF-268 CNS
30.2 µM: HCT-116 colon
33.8 µM: CAKI-1 renal
33.6 µM: DMS 114 small cell lung | LXFL 529 NSCLC
33.1 µM: HOP-92 NSCLC
35.8 µM: LOX IMVI melanoma
33.3 µM: 786-0 renal
34.6 µM: OVCAR-3 ovarian
5.51 µM: HL-60(TB) leukemia
60.9 µM: DMS 273 small cell lung
42.9 µM: SK-MEL-28 melanoma
33.2 µM: RXF 393 renal
40.1 µM: HT29 colon
78.4 µM: MOLT-4 leukemia
36.1 µM: UACC-62 melanoma
34.5 µM: TK-10 renal
41.8 µM: DLD-1 colon
35.5 µM: NCI-H226 lung
34.3 µM: UACC-257 melanoma
44.7 µM: OVCAR-8 ovarian

COC(=O)C12C(=O)O[C@H](C)C1(O)C(C)C(=O)N2C (stereo partly drawn)
86.2 µM: XF 498 CNS
not listed: A549 NSCLC | ACHN renal | CCRF-CEM leukemia | DMS 273 small cell lung | HL-60(TB) leukemia | HOP-92 NSCLC | KM20L2 colon | LOX IMVI melanoma | LXFL 529 NSCLC | NCI-H226 lung | NCI-H460 lung | NCI-H522 lung | SF-268 CNS | SN12C renal | SNB-75 CNS | SW-620 colon | UACC-257 melanoma | A498 renal
> 100 µM: all other assays above

CCOC(=O)NC(=O)c1cn(CCCOC(=O)CCCCCCCCCCC(=O)OCCCn2cc(C(=O)NC(=O)OCC)c(=O)n(C)c2=O)c(=O)n(C)c1=O
not listed: KM20L2 colon
> 100 µM: all other assays above

COC(=O)C12CC(c3ccccc31)C1C(=O)OC(=O)C12 (stereo not drawn)
not listed: CAKI-1 renal | NCI-H226 lung | SK-OV-3 ovarian | SR leukemia | HOP-18 NSCLC | A498 renal
> 100 µM: all other assays above

Source: PubChem BioAssay (NCI)
